The structures appear in SMILES notation. A value given as a limit tells only on which side of the number the result lay.

One molecule from patent US7595330B2, “Benzimidazole thiophene compounds” (SmithKline Beecham Corporation, priority 2005, dated 2009) can be followed below.

The subject of data set [1] is HCT116. The data set is described as follows: Methylene blue growth inhibition assay, HCT116. In kind it is cell-based. Particulars: Homo sapiens, HCT-116, 72 h, read-out: HCT116 IC50 (μM). As to the method:
(§1) II. Methylene Blue Growth Inhibition Assay—Inhibition of Cell Proliferation by PLK1 Inhibitors
(§2) Generally, exponentially growing cell lines of different tumor origins, cultured in appropriate media containing 10% fetal bovine serum at 37° C. in a 5% CO2 incubator were plated at low density (less than 2000 cells/well) in 96-well plates. […]. Seventy two hours post-treatment, cell numbers were determined using 100 μl per well of methylene blue (Sigma M9140) (0.5% in 50:50 Ethanol:water). Stain was incubated at room temperature for 30 minutes before plates were rinsed and dye solubilized in 1% N-lauroyl sarcosine, sodium salt, (Sigma L5125, in PBS) (further details of a methylene blue assay are described below). Plates were read on a microplate reader, measuring the OD at 620 nm.
(§3) . The data are shown in Table 1 below and represent a compilation of several different experiments, each performed using the general parameters outlined above, although minor variations may have been employed in some instances.
(§4) In one assay, normal human foreskin fibroblasts (HFF), human colon (HCT116, RKO), lung (H460, A549) and breast (MCF7) tumor cell lines were cultured in high glucose DMEM (Life Technologies) containing 10% fetal bovine serum (FBS) at 37° C. in a humidified 5% CO2, 95% air incubator. Cells were harvested using trypsin/EDTA, counted using a haemocytometer, and plated in 100 μL of culture media per well, at the following densities, in a 96-well tissue culture plate (Falcon 3075): HFF 5,000 cells/well, HCT116 3,000 cells/well, RKO 2,500 cells/well, H460 2,500 cells/well, A549 5,000 cells/well, MCF7 4,000 cells/well. The next day, compounds were diluted in low glucose DMEM containing 100 μg/mL gentamicin, at twice the final required concentration, from 10 mM stock solutions in DMSO. 100 μL/well of these dilutions were added to the 100 μL of media currently in the assay plates. Medium containing 0.6% DMSO was added to control wells. The final concentration of DMSO in all wells was 0.3%. Cells were incubated at 37° C., 5% CO2 for 72 h. Medium was removed by aspiration. Cell biomass was estimated by staining cells with 80 μL per well methylene blue (Sigma M9140, 0.5% in 50:50 ethanol:water), and incubation at room temperature for 30-60 min. Stain was removed by aspiration and the plates rinsed by immersion in water, then air-dried. To release stain from the cells, 100 μL of solubilization solution was added (1% N-lauroyl sarcosine, Sodium salt, Sigma L5125, in PBS), and plates were shaken gently for about 30 min. Optical density at 620 nm was measured on a microplate reader. Percent inhibition of cell growth was calculated relative to vehicle treated control wells. […].

The test system of the next data set is H460. The data set is described as follows: Methylene blue growth inhibition assay, H460. In kind it is cell-based. Particulars: Homo sapiens, NCI-H460, 72 h, read-out: H460 IC50 (μM). Here is the method:
as §1, §2, §3, §4

The subject of data set [2] is MCF7. Nature of the data set: Methylene blue growth inhibition assay, MCF7. In kind it is cell-based. Conditions: Homo sapiens, MCF7, 72 h, read-out: MCF7 IC50 (μM). As to the method:
as §1, §2, §3, §4

The subject of another data set is A549. The data set is described as follows: Methylene blue growth inhibition assay, A549. It is filed as cell-based. Conditions: Homo sapiens, A549, 72 h, read-out: A549 IC50 (μM). As to the method: as §1, §2, §3, §4
The next data set concerns RKO. The data set is described as follows: Methylene blue growth inhibition assay, RKO. In kind it is cell-based. Conditions: Homo sapiens, 72 h, read-out: RKO IC50 (μM). Here is the method: as §1, §2, §3, §4
For data set [3], the system named is normal human foreskin fibroblasts (HFF). The data set is described as follows: Methylene blue growth inhibition assay, HFF. It is filed as cell-based. Conditions: Fibroblast, 72 h, read-out: HFF IC50 (μM). Here is the method: as §1, §2, §3, §4
A further data set deals with human plasma proteins. Nature of the data set: Protein binding to human plasma proteins using equilibrium dialysis. It is filed as in vitro ADME. Particulars: pH 7.4, equilibrium dialysis 6 h, 37° C. Here is the method: III. Determination of Protein Binding to Human Plasma Proteins Using Equilibrium Dialysis
96 Well Plate (High Throughput Dialysis): Stock solutions of compounds were spiked into human plasma at a target concentration of 2000 ng/mL. The mixture was inverted gently several times to insure homogeneity and triplicate 50 μL aliquots were collected to verify initial concentrations. Following assembly of dialysis plate (HTDialysis membrane strips, molecular weight cut off limit of 12,000-14,000 daltons), spiked plasma (150 μL) was placed in the donor compartment of the well and Phosphate Buffered Saline pH 7.4 (150 μL) in the receiver compartment. Eight wells were set up per compound and plasma type. Plate was placed in a 37° C. incubator on a plate shaker. Following the 6 h incubation period, the plate was removed. Single 50 μL aliquots from each donor and receiver compartment (per well) were analyzed. Sample analysis was by LC/MS/MS (results reported as Drug Peak Area/Internal Standard Peak Area ratios). Protein binding assay can also be performed using dialysis cells instead of HT Dialysis 96 well plates. In Table 1, % Protein Binding, +=>98%; ++=95-98%: +++=<95%.

A short description of data set [4]: High throughput solubility assay. Conditions: aqueous buffer, pH 7.4, 0.05M phosphate buffer. It is filed as physicochemical. As to the method:
IV. High Throughput Solubility Assay
Two samples are prepared for each compound. One (the standard sample) contains the compound at a fixed concentration of 20 μM in an aqueous/organic mixed solvent cocktail. The other (the test sample) contains the compound at a maximum concentration of 200 μM in pH 7.4, 0.05M phosphate buffer and shaking for 24 h. The test sample is filtered by 0.45μ filter and then spun for 10 min to remove any undissolved solid. HPLC analyses are preformed on these samples. The peak areas are used for computing solubility.

In data set [5] the test system is HCT116. The data set is described as follows: Cell-Titer-Glo inhibition of cell proliferation, HCT116. Particulars: Homo sapiens, HCT-116, CellTiter-Glo, 72 h. It is filed as cell-based. Here is the method:
(§5) V. Cell-Titer-Glo—Inhibition of Cell Proliferation by PLK1 Inhibitors
(§6) Exponentially growing cell lines of different tumor origins, cultured in appropriate media containing 10% fetal bovine serum at 37° C. in a 5% CO2 incubator were plated at low density (less than 2000 cells/well) in 96-well plates. Twenty four hours post-plating, cells were treated with different concentrations of test compounds ranging from 10 uM to 0.04 nM. Several wells were left untreated as a control. Seventy two hours post-treatment, cell numbers were determined using 50-100 ul per well of CellTiter-Glo (Promega #G7573). Plates were incubated at room temperature for 15 minutes and the chemiluminescent signal was read on the Victor V or Envison 2100 reader.
(§7) The Cell-Titer Glo data are shown in Table 2 below and represent a compilation of several different experiments, each performed using the general parameters outlined above, although minor variations may have been employed in some instances.

For the next data set, the system named is A549-L. Nature of the data set: Cell-Titer-Glo inhibition of cell proliferation, A549-L. In kind it is cell-based. Particulars: CellTiter-Glo, 72 h. Here is the method: as §5, §6, §7
Background: ATP-based viability assays read luminescence as a measure of living cells.

Another data set relates to COLO205. Nature of the data set: Cell-Titer-Glo inhibition of cell proliferation, COLO205. It is filed as cell-based. Conditions: Homo sapiens, COLO 205, CellTiter-Glo, 72 h. As to the method:
as §5, §6, §7

In the next data set the test system is HT29. Nature of the data set: Cell-Titer-Glo inhibition of cell proliferation, HT29. It is filed as cell-based. Conditions: Homo sapiens, HT-29, CellTiter-Glo, 72 h. As to the method:
as §5, §6, §7

The next data set relates to MX-1. Nature of the data set: Cell-Titer-Glo inhibition of cell proliferation, MX-1. It is filed as cell-based. Particulars: Homo sapiens, MX1, CellTiter-Glo, 72 h. Here is the method: as §5, §6, §7
Another data set deals with SKOV-3. Nature of the data set: Cell-Titer-Glo inhibition of cell proliferation, SKOV-3. It is filed as cell-based. Conditions: Homo sapiens, SK-OV-3, CellTiter-Glo, 72 h. Here is the method:
as §5, §6, §7

The next data set relates to H1299. The data set is described as follows: Cell-Titer-Glo inhibition of cell proliferation, H1299. In kind it is cell-based. Conditions: Homo sapiens, NCI-H1299, CellTiter-Glo, 72 h. As to the method:
as §5, §6, §7

Data set [6] relates to MCF7. The data set is described as follows: Cell-Titer-Glo inhibition of cell proliferation, MCF7. In kind it is cell-based. Particulars: Homo sapiens, CellTiter-Glo, 72 h. Here is the method: as §5, §6, §7
Another data set relates to MV522. Nature of the data set: Cell-Titer-Glo inhibition of cell proliferation, MV522. Particulars: CellTiter-Glo, 72 h. In kind it is cell-based. Here is the method:
as §5, §6, §7

The subject of a further data set is MDA-MB-468. Nature of the data set: Cell-Titer-Glo inhibition of cell proliferation, MDA-MB-468. Conditions: Homo sapiens, CellTiter-Glo, 72 h. In kind it is cell-based. Here is the method: as §5, §6, §7

For orientation: IC50 means the midpoint of a concentration-inhibition curve. By fraction unbound is commonly meant free concentration divided by total concentration. High values mean much free substance, low ones little free substance. What is called solubility is the dissolved amount per volume that the medium holds. As for `C[C@@H](Oc1cc(-n2cnc3ccc(OC4CCNCC4)cc32)sc1C(N)=O)c1ccccc1C(F)(F)F` [Example 5, 5-[6-(4-Piperidinyloxy)-1H-benzimidazol-1-yl]-3-({(1R)-1-[2-(trifluoromethyl)phenyl]ethyl}oxy)-2-thiophenecarboxamide], the IC50 with HCT116 [1] is below 0.1 µM; in the data set on H460, below 0.1 µM; with MCF7 [2], below 0.1 µM; in the data set with A549 it was below 0.1 µM; in the data set with RKO it was below 0.1 µM; in data set [3] it was 0.1 to 1 µM. In addition, the IC50 in the data set on HCT116 [5], with A549-L, in the data set on COLO205, in the data set on HT29, with MX-1 and in the data set on SKOV-3 was below 500 nM each time. Further, the IC50 in the data set with H1299, in the data set with MCF7 [6], with MV522 and with MDA-MB-468 was below 500 nM in each case. The same molecule yielded a fraction unbound at 6 h, 2000 ng/mL in the data set with human plasma proteins of 0.02 to 0.05. Also, the solubility at 24 h in data set [4] is above 100 µM.
